Measured values published in patent US6346278B1, “Lipid extract having anti-inflammatory activity” (Pharmalink International Limited, priority 1995, dated 2002).

How the values were obtained:
[1] = test system: arthritic rats; assay: Anti-arthritic assay: adjuvant-induced polyarthritis, treatment days 10-13; type: in vivo; details: for % Reduction in Inflammation: rear paw thickness day 14 vs control
Excerpt: Though more time consuming, this assay is of more value than the acute assay (described above) as it detects not only (i) those anti-inflammatory drugs acting in the acute assay (but often at lower ED50 values) but also (ii) other agents e.g. clobuzarit (CIoZic^R) or lobenzarit (CCA), which obviously have unique arthritis-suppressant properties but are not anti-oedemic/antipyretic or otherwise detectable in acute assays.
The protocol used is to pre-establish disease by injecting the arthritigen on Day 0, look for first signs of paw inflammation (usually manifest on Days 10-12) and then dose the animals with test materials for four days. Over this period, the paw inflammation in the untreated control animals “blooms” rapidly to reach a near maximum on Day 14. Drugs acting over this time-frame to hold down the paw swelling are certainly anti-symptomatic but rarely disease-ablating. On ceasing treatment, there is usually a recrudescence in symptoms. This however is a positive feature of this assay as it clearly indicates a) the drug has a finite action but gives some idea of its duration of efficacy by the rapidity (or otherwise) of the rebound; and b) the animals with minimal signs of disease on Day 14 reflected a positive drug effect rather than failure to respond to the original arthritigen (i.e. false negatives). An accurate description of this assay is “late prophylaxis”. Obviously by delaying treatment until after Day 14, one can look for “therapeutic activity”, but since changes may be slow or negligible within four days (even with some powerful NSAIDs), collection of adequate data is difficult.
Details of the protocol used are: inject the arthritigen into the tailbase of female Wistar rats (160-200 gm)=800 mcg heat-killed Mycobact tuberculosis suspended in 0.1 ml squalane in such a fashion as to avoid any blood vessels and to promote optimal drainage into the lymphatics. Ten days later, the animals were weighed, the thickness of the rear paws and tail was measured and signs of inflammation in the forepaws scored on a scale of 0 to 4 +. After dosing with test compounds once daily for four days (i.e. on Days 10 through 13 post-arthritigen), these measurements were repeated on Days 14 and 18 (i.e. after completion of treatment and again after four days rebound) to monitor the arthritis development. […]
Rats with the first signs of arthritis 10 days after inoculating with mycobacterial arthritogen were then treated orally with the test materials for 4 days only. Effectiveness of the test materials was measured as […] rear paw thickness on day 14 when compared to the control group H.

[2] = test system: Carrageenin paw oedema; assay: Acute carrageenin paw oedema assay; type: in vivo, rat; details: for % Inhibition Oedema 1 hr / % Inhibition Oedema 2 hr: 30 mg/kg
Experimental: Female Wistar rats (180-220 gm) were pre-dosed p.o. or i.p. with test formulations. 40 minutes later they were injected in each rear paw with 0.1 ml saline containing 0.6 mg Na carrageenin. The subsequent paw oedema was quantified by measuring the increase in paw thickness after one and two hours with a screw gauge micrometer. […] [The oedema recedes after three hours with this dose of carrageenin.]

[3] = test system: Kaolin-induced paw oedema; assay: Kaolin-induced paw oedema; type: in vivo, rat; details: 150 mg/kg p.o., without synergist
Experimental: Kaolin-induced paw oedema was investigated as a possible assay for PCO since this inflammation is slower developing than that induced with carrageenin (which recedes after three hours). The protocol involves injecting 5 mg kaolin, suspended in water (not saline, in which it aggregates), into each rear paw 40 minutes after dosing the rats with PCO given both p.o. or i.p. as dispersions prepared with 0.02% Tween in either water (p.o.) or saline (i.p.). The paw swelling was then read two hours and five hours after the kaolin injection.

[4] = test system: stomach; assay: Gastro-toxicity assay; type: in vivo, rat
Experimental: Gastro toxicity studies were carried out on female Wistar rats with established arthritis initiated with collagen (type II), not on drug therapy. Aspirin and PCO were suspended with 0.04% Tween-20 for oral dosing, after fasting animals overnight. […]

[5] = test system: collagen (II)-induced auto-allergic arthritis; assay: Collagen (II)-induced auto-allergic arthritis; details: for Rear paw inflammation Day 2 / Rear paw inflammation Day 4: paw inflamed by collagen (II) injection; for Percent Inhibitions Front paw inflam. / Percent Inhibitions Left rear paw / Percent Inhibitions Right rear paw: day 14
Experimental: Collagen (Type II) induced polyarthritis was induced in female Wistar rats by injection of collagen (II) with a non-arthritogenic adjuvant to sensitise the test animals.
PCO was given orally after dilution into olive oil (8 mg/ml) and administered at 2.5 ml/kg/day to give 20 mg/kg.
Prophylactic treatment was from day 1 to day 13 (i.e. total […]) orally (p.o.). […] PCO was diluted into olive oil (6 mg/ml) for p.o. dosing at 2.5 ml/kg/day to give 15 mg/kg, and diluted into olive oil-cineole (17.3 v/v) (10 mg/ml) for t.d. administration at 2 ml/kg/day to give 20 mg/kg.
Seatone™ was administered p.o. at 300 mg/kg; Nurofen™ was administered p.o. at 50 mg/kg; Na Aurothiomalate (ATM) was administered in 8 doses at 6.3 mg/kg subcutaneously (s.c.).

[6] = with MPL (Misoprostal 0.5 mg/kg p.o.)
[7] = 50 mg/kg p.o. x15, prophylactic
[8] = 50 mg/kg p.o. x15, prophylactic day 1 to day 13
[9] = 6.3 mg/kg s.c. in saline x8, every second day
[10] = 6.3 mg/kg s.c. x8, every second day

Structure (SMILES): COc1ccc2c(c1)c(CC(=O)O)c(C)n2C(=O)c1ccc(Cl)cc1 [Indomethacin, indomethacin]
- % Reduction in Inflammation ([1]; 1 mg/kg orally for 4 days): 26%
- % Reduction in Inflammation ([1]; 3 mg/kg orally for 4 days): 68%
- % Reduction in Inflammation ([1]; 5 mg/kg orally for 4 days): 83%

Structure (SMILES): CC(=O)Oc1ccccc1C(=O)O [Aspirin]
- ED50 ([2]; Rattus norvegicus, acute carrageenin assay): ~150 mg/kg
- effective dose in the standard anti-arthritic assay ([1]; adjuvant-induced rat polyarthritis): 300 mg/kg
- % Inhibition Oedema 2 HR ([3]; 2 HR): 55%
- % Inhibition Oedema 5 HR ([3]; 5 HR): 51%
- effect on the stomach (in words) ([4]; 300 mg/kg (20 times an effective dose of PCO)): considerable gastric damage
- Gastric lesion index ([4]; High arthritis with 0.15 N HCl co-administered orally, oral in 0.04% Tween-20): >112
- Gastric lesion index ([4]; High arthritis, Day 15, oral in 0.04% Tween-20, fasted overnight): 82
- Gastric lesion index ([4]; Low arthritis, Day 32, oral in 0.04% Tween-20, fasted overnight): 41

Structure (SMILES): CC(C)Cc1ccc(C(C)C(=O)O)cc1 (stereo not shown) [Nurofen, ibuprofen]
- % Inhibition Oedema 1 hr [2, 6]: 56%
- % Inhibition Oedema 2 hr [2, 6]: 58%
- % Inhibition Oedema 1 hr ([2]; without MPL): 37%
- % Inhibition Oedema 2 hr ([2]; without MPL): 42%
- % Inhibition Front paw ([5]; 40 mg/kg, days 8-14): 72%
- % Inhibition Rear L. paw ([5]; 40 mg/kg, days 8-14): 54%
- % Inhibition Rear R. paw ([5]; 40 mg/kg, days 8-14): 07%
- Mean Differences Days 8-15 Ft. Paw Inflam. ([5]; 40 mg/kg, days 8-14): 0.7 +
- Mean Differences Days 8-15 Rear R. Paw ([5]; 40 mg/kg, days 8-14): 1.48 mm
- Mean Differences Days 8-15 ΔWt ([5]; 40 mg/kg, days 8-14): +15 gm
- Mean Differences Days 8-15 Rear L. Paw ([5]; 40 mg/kg, days 8-14 (7 daily doses), therapeutic): 0.82 mm
- Day 14: Signs arthritis Front paw inflam. [5, 7]: 2.5+
- Day 14: Signs arthritis Left rear paw [5, 7]: 1.35 mm
- Day 14: Signs arthritis Right rear paw [5, 7]: 1.72 mm
- Percent Inhibitions rear paw inflammation Day 2 [5, 7]: (−05) %
- Percent Inhibitions rear paw inflammation Day 4 [5, 7]: (−20) %
- ΔWt(0-14) [5, 7]: +12 gm
- Rear paw inflammation Day 2 [5, 8]: 1.48 mm
- Rear paw inflammation Day 4 [5, 8]: 1.52 mm
- Percent Inhibitions Front paw inflam. [5, 7]: (−14) %
- Percent Inhibitions Left rear paw [5, 7]: 32%
- Percent Inhibitions Right rear paw [5, 7]: 02%
- Differences Days 15-18 (Rebound) Front paw ([5]; after 40 mg/kg, days 8-14): 1.1+
- Differences Days 15-18 (Rebound) Rear L. paw ([5]; after 40 mg/kg, days 8-14): 0.38
- Differences Days 15-18 (Rebound) Rear R. paw ([5]; after 40 mg/kg, days 8-14): 0.38
- Differences Days 15-18 (Rebound) ΔWt. ([5]; after 40 mg/kg, days 8-14): +05

Structure (SMILES): O=C([O-])CC([S-])C(=O)[O-].[Au+].[Na+].[Na+] (stereo not shown) [ATM, sodium aurothiomalate]
- Rear paw inflammation Day 2 [5, 9]: 1.00 mm
- Rear paw inflammation Day 4 [5, 9]: 0.68 mm
- Day 14: Signs arthritis Front paw inflam. [5, 10]: 1.3+
- Day 14: Signs arthritis Left rear paw [5, 10]: 0.47 mm
- Day 14: Signs arthritis Right rear paw [5, 10]: 0.70 mm
- Percent Inhibitions rear paw inflammation Day 2 [5, 10]: 29%
- Percent Inhibitions rear paw inflammation Day 4 [5, 10]: 46%
- Percent Inhibitions Front paw inflam. [5, 10]: 41%
- Percent Inhibitions Left rear paw [5, 10]: 76%
- Percent Inhibitions Right rear paw [5, 10]: 60%
- ΔWt(0-14) ([5]; 6.3 mg/kg s.c. x8, weight gain may be misleading (possible incipient kidney damage)): (+24) gm
- toxic dose ([5]; s.c. in saline every second day, higher doses were toxic): > 6.3 mg/kg
